Experiment: in vivo
Conditions: SCID/rag2, mouse, plasma, iv, 10 mg/kg

## CCC1=C[C@@H]2CN(C1)Cc1c([nH]c3ccccc13)[C@@](C(=O)OC)(c1cc3c(cc1OC)N(C)[C@H]1[C@@](O)(C(=O)OC)[C@H](OC(C)=O)[C@]4(CC)C=CCN5CC[C@]31[C@@H]54)C2 [free vinorelbine, vinorelbine]
  AUC: 112 ng·h/mL

— patent publication US10722464B2, “Compositions for delivery of drug combinations” (priority 2001, dated 2020)
